According to US8017828B2, “Utilization of rare sugars in plant or microorganism” (Shikoku Research Institute Incorporated, priority 2004, dated 2011):

Key:
Cymbidium = experiment: Growth of Cymbidium flask seedlings in tissue culture; assay type: in vivo; conditions: 0.005% in MS medium; for Number of lateral buds: non 0; for Aerial part weight: non 2.1; for Underground part weight: non 3.8; for Number of roots: non 10.8
From the text: (§1) Flask seedlings of Phalaenopsis orchid and Cymbidium obtained by tissue culture were used in an experiment.
As for Cymbidium, in the same manner as the above Phalaenopsis orchid, MS medium supplemented with D-psicose, D-glucose, D-fructose or D-allose was used, and the flask seedlings were aseptically transplanted on Oct. 4, 2004. At this time, 4 or 5 leaves and 2 roots were left and the rest of them were cut off using a knife. As for the number of seedlings, 4 seedlings were used for 1 test plot, and glass bottles with a capacity of 900 ml and having a hole with a diameter of about 1 cm for preventing dew condensation made in the upper region was used as culture containers. The cultivation was carried out in a culture chamber at 25° C. and 5,000 Lux (12-hour day length) Then, on Feb. 1, 2005, a survey was carried out with regard to the growth conditions of aerial part and underground part, the number of roots and the number of lateral buds. The results are shown in Table 9 (effect of addition of rare sugar on the growth of seedlings of Cymbidium).

[1] = system: strawberry plant (variety: “smile ruby”); experiment: Growth of strawberry seedlings in tissue culture medium with sugar; assay type: in vivo; conditions: increased (high) concentration in medium
[2] = system: stress/hormone response genes; assay type: in vivo, Lotus japonicus; conditions: for activation of gene group that responds to pathogenic bacteria and environmental stresses: 5 mM in medium, first one week
Protocol: A pattern of induction of a gene in the case where D-psicose was added to a medium for Lotus japonicus was examined by an experiment using a cDNA array.
Lotus japonicus was germinated from a seed and cultivated in an L&B medium (hydroponic culture medium). When the seed was germinated, Mesorhizobium loti was also inoculated. This condition was applied to both a control plot and a plot of D-psicose addition. With regard to the array, a microarray on which 14,000 clones were immobilized by using a Lotus japonicus cDNA array was used. After test plants were germinated, they were cultivated with an L&B medium supplemented with D-psicose or without addition for 1 week in a growth cabinet (22° C., 30,000 Lux). After total RNA was extracted from the plant body, it was labeled with ^33P in the process where it was converted to cDNA, and then hybridization was carried out. Reading was carried out using STORM 850 and analysis was carried out with Array Vision.

Phalaenopsis orchid = experiment: Growth of Phalaenopsis orchid flask seedlings in tissue culture; assay type: in vivo; conditions: 0.005% in MS medium; for Underground part weight: non 2.9; for Aerial part weight: non 4.7; for Number of roots: non 12.5
Protocol: as §1
As for Phalaenopsis orchid, MS medium supplemented with D-psicose, D-glucose or D-fructose at a concentration of 0.005% (w/v) was used, and the flask seedlings were aseptically transplanted on Sep. 6, 2004. As for the number of seedlings, 4 seedlings were used for 1 test plot, and glass bottles with a capacity of 500 ml and having a hole with a diameter of about 1 cm for preventing dew condensation made in the upper region was used as culture containers. The cultivation was carried out in a culture chamber at 25° C. and 5,000 Lux (12-hour day length) Then, on Jan. 24, 2005, a survey was carried out with regard to the growth conditions of aerial part and underground part and the number of roots. The results are shown in Table 8 (effect of addition of D-psicose on the growth of seedlings of Phalaenopsis orchid).

[3] = system: cherry tomato plant “mini carol”; experiment: Hydroponic growth of cherry tomato with 0.05 or 0.5 mM sugar, 10 days; assay type: in vivo
Protocol: Subsequently, a cherry tomato plant “mini carol” was transplanted for permanent planting to a hydroponic apparatus, and a total of 7 treated plots in which a plot without addition (control plot) was added to 6 treated plots with the use of a nutrient solution supplemented with 0.05 mM or 0.5 mM D-psicose, D-fructose or mannitol were prepared. A survey was carried out with regard to the growth at 10 days after the permanent planting. […] The stem diameter was the smallest in the case of 0.5 mM D-psicose. The number of leaves was the smallest in the case of 0.5 mM D-psicose and 0.5 mM mannitol. The root length was the smallest in the case of 0.5 mM psicose.

Primula = experiment: Drying stress of Primula after foliar spraying; assay type: in vivo; conditions: foliar spraying of 0.2% (w/v) solution
Protocol: By using Primula, an effect of spraying D-psicose on a drying stress was examined. By using commercially available Primula planted in a pot, foliar spraying of water, a 0.2% (w/v) D-glucose solution or a 0.2% (w/v) D-psicose solution was carried out on the whole plant. After irrigation was sufficiently carried out from the lower part of the pot, the plant was left in a condition that no irrigation was carried out, and a wilted condition thereof was observed.

[4] = system: strawberry plant (variety: “smile ruby”); experiment: Growth of strawberry seedlings in tissue culture medium with sugar; assay type: in vivo; conditions: for Underground part weight / Number of lateral buds / Aerial part weight / Root length: 0.1% (w/v) in medium; for Underground part weight: without addition 0.5; for Number of lateral buds: without addition 0.6; for Aerial part weight: without addition 1.8; for Root length: without addition 8.7; for Plant length: 0.1% (w/v) in ½ strength MS medium, without addition 3.0
Protocol: Seedlings of a strawberry plant (variety: “smile ruby”) obtained by meristem culture under sterile conditions were used in an experiment.
As for the strawberry, by using ½ strength MS medium supplemented with 0.1% (w/v) D-psicose or D-glucose, the seedling plants were aseptically transplanted on Oct. 14, 2003, and then, cultivation was carried out in a culture chamber at 25° C. and 5,000 Lux (12-hour day length). Then, on Jan. 20, 2004, a survey was carried out with regard to the growth conditions of aerial part and underground part, the number of lateral buds and the like.

O=C[C@H](O)[C@H](O)[C@H](O)[C@H](O)CO [D-allose]
Number of lateral buds (Cymbidium): 3.8 buds | Aerial part weight (Cymbidium): 2.7 g | Underground part weight (Cymbidium): 4.0 g | Number of roots (Cymbidium): 12.8 roots | growth when the concentration added to the medium was increased [1]: the growth thereof was delayed

O=C(CO)[C@@H](O)[C@H](O)[C@H](O)CO [D-fructose, reference compound]
activation of gene group that responds to pathogenic bacteria and environmental stresses [2]: not observed | Number of lateral buds (Cymbidium): 0 buds | Aerial part weight (Cymbidium): 2.0 g | Underground part weight (Cymbidium): 3.8 g | Number of roots (Cymbidium): 10.0 roots | Underground part weight (Phalaenopsis orchid): 4.0 g | Aerial part weight (Phalaenopsis orchid): 5.7 g | Number of roots (Phalaenopsis orchid): 14.8 roots | stem length, rank among 7 treated plots ([3]; 0.5 mM): the longest

O=C[C@H](O)[C@@H](O)[C@H](O)[C@H](O)CO [D-glucose, reference compound]
time until wilt of the whole plant without irrigation (Primula): one day | Number of lateral buds (Cymbidium): 0 buds | Aerial part weight (Cymbidium): 1.9 g | Underground part weight (Cymbidium): 2.9 g | Number of roots (Cymbidium): 9.5 roots | Underground part weight (Phalaenopsis orchid): 3.7 g | Aerial part weight (Phalaenopsis orchid): 5.1 g | Number of roots (Phalaenopsis orchid): 12.3 roots | Underground part weight [4]: 1.2 g | Number of lateral buds [4]: 1.0 | Aerial part weight [4]: 3.0 g | Root length [4]: 8.7 cm | Plant length [4]: 4.3 cm

O=C(CO)[C@H](O)[C@H](O)[C@H](O)CO [D-psicose]
activation of gene group that responds to pathogenic bacteria and environmental stresses [2]: activated | expression of a gene group regulated by plant hormones such as auxin ([2]; about 0.1 mM in medium): an increase or a decrease in the expression | Expression ratio (D-psicose/water): auxin response factor 6 (ARF6) ([2]; psicose: 0.1 mM, 1 week): 2.5 | Expression ratio (D-psicose/water): auxin-binding protein T85 precursor (ABP) ([2]; psicose: 0.1 mM, 1 week): 2.4 | Expression ratio (D-psicose/water): chitinase ([2]; psicose: 0.1 mM, 1 week): 2.2 | Expression ratio (D-psicose/water): chitinase (EC 3.2.1.14) class II ([2]; psicose: 0.1 mM, 1 week): 2.2 | Expression ratio (D-psicose/water): glycine-rich RNA-binding, abscisic acid-inducible protein ([2]; psicose: 0.1 mM, 1 week): 2.5 | Expression ratio (D-psicose/water): metal stress-regulated protein SR7 ([2]; psicose: 0.1 mM, 1 week): 2.4 | Expression ratio (D-psicose/water): pathogen-inducible alpha-dioxygenase ([2]; psicose: 0.1 mM, 1 week): 2.4 | Expression ratio (D-psicose/water): putative WD-40 repeat protein ([2]; psicose: 0.1 mM, 1 week): 2.2 | Expression ratio (D-psicose/water): turgor-responsive protein 26G ([2]; psicose: 0.1 mM, 1 week): 2.3 | Expression ratio (D-psicose/water): ACC oxidase ([2]; psicose: 5 mM, 1 week): 5.1 | Expression ratio (D-psicose/water): PDR5-like ABC transporter ([2]; psicose: 5 mM, 1 week): 10.8 | Expression ratio (D-psicose/water): PR-10-1 protein ([2]; psicose: 5 mM, 1 week): 5.5 | Expression ratio (D-psicose/water): auxin response factor like protein ([2]; psicose: 5 mM, 1 week): 5.6 | Expression ratio (D-psicose/water): chalcone synthase ([2]; psicose: 5 mM, 1 week): 5.4 | Expression ratio (D-psicose/water): class I chitinase ([2]; psicose: 5 mM, 1 week): 13.2 | time until wilt of the whole plant without irrigation (Primula): 2 days | Number of lateral buds (Cymbidium): 0.5 buds | Aerial part weight (Cymbidium): 2.0 g | Underground part weight (Cymbidium): 4.1 g | Number of roots (Cymbidium): 10.8 roots | Underground part weight (Phalaenopsis orchid): 4.1 g | Aerial part weight (Phalaenopsis orchid): 6.1 g | Number of roots (Phalaenopsis orchid): 16.0 roots | Underground part weight [4]: 1.9 g | Number of lateral buds [4]: 1.3 | Aerial part weight [4]: 3.1 g | Root length [4]: 7.2 cm | Plant length [4]: 4.5 cm | growth when the concentration added to the medium was increased [1]: the growth thereof was delayed | stem length, rank among 7 treated plots ([3]; 0.05 mM): the second longest | fresh and dry aerial part weights, rank among 7 treated plots ([3]; 0.5 mM): the smallest | number of leaves, rank among 7 treated plots ([3]; 0.5 mM): the smallest | root length, rank among 7 treated plots ([3]; 0.5 mM): the smallest | stem diameter, rank among 7 treated plots ([3]; 0.5 mM): the smallest | stem length, rank among 7 treated plots ([3]; 0.5 mM): the shortest
